Experimental data taken from publication PMC8657723, “Novel Pituitary Actions of TAC4 Gene Products in Teleost” (International Journal of Molecular Sciences, 2021).
“Also recorded” adds a separate entry of the source.

Key:
Assay type in all cases: cell-based, grass carp (Ctenopharyngodon idellus)
NK2R = assay: Functional activation of grass carp NK2R, NFAT-Luc reporter in HEK293T cells; conditions: among the six NKR isoforms
Method: To clarify the receptor selectivity of TAC4 gene products, a transfection experiment was conducted in HEK293T cells, and the fluorescent signal was detected by the firefly luciferase reporter gene detection kit. Firstly, the cDNA sequences of neurokinin receptor 1 isoforms a (NK1Ra), neurokinin receptor 1 isoforms b (NK1Rb), NK2R, neurokinin receptor 3 isoforms a1 (NK3Ra1), neurokinin receptor 3 isoforms a2 (NK3Ra2), and neurokinin receptor 3 isoforms b (NK3Rb) were isolated from grass carp pituitary, and the coding region of the six receptors were then subcloned into the eukaryotic expression vector pcDNA3.1. Secondly, the HEK293T cells were co-transfected with the plasmids of NFAT-Luc (Nuclear factor of activated T cells-luciferase), green fluorescent protein (GFP), and each pcDNA3.1-NKRs by using Lipofectamine 3000 (Thermo Fisher). The transfected HEK293T cells were incubated with various concentration HK-1 (1–10,000 nM), HK-2 (1–10,000 nM), or HK1-V7F (1–10,000 nM) for 24 h, respectively. Finally, the transfected cells were collected to detect the luciferase value according to the instructions of the firefly luciferase reporter gene detection kit. […]
Figure 2 Receptor selectivity of HK1, HK2, and HK1-V7F. […] Each point is determined quadruplicate and is given as a mean ± SEM. […]

six NKR isoforms = assay: Functional activation of the six grass carp NKR isoforms, NFAT-Luc reporter in HEK293T cells; conditions: 24 h
Method: To clarify the receptor selectivity of TAC4 gene products, a transfection experiment was conducted in HEK293T cells, and the fluorescent signal was detected by the firefly luciferase reporter gene detection kit. Firstly, the cDNA sequences of neurokinin receptor 1 isoforms a (NK1Ra), neurokinin receptor 1 isoforms b (NK1Rb), NK2R, neurokinin receptor 3 isoforms a1 (NK3Ra1), neurokinin receptor 3 isoforms a2 (NK3Ra2), and neurokinin receptor 3 isoforms b (NK3Rb) were isolated from grass carp pituitary, and the coding region of the six receptors were then subcloned into the eukaryotic expression vector pcDNA3.1. Secondly, the HEK293T cells were co-transfected with the plasmids of NFAT-Luc (Nuclear factor of activated T cells-luciferase), green fluorescent protein (GFP), and each pcDNA3.1-NKRs by using Lipofectamine 3000 (Thermo Fisher). The transfected HEK293T cells were incubated with various concentration HK-1 (1–10,000 nM), HK-2 (1–10,000 nM), or HK1-V7F (1–10,000 nM) for 24 h, respectively. Finally, the transfected cells were collected to detect the luciferase value according to the instructions of the firefly luciferase reporter gene detection kit.
To clarify the receptor selectivity of HK1 and HK2 for the six NKRs, HEK-293T cell lines were established to stably express NK1Ra, NK1Rb, NK2R, NK3Rb, NK3Ra1, or NK3Ra2 were established, respectively. The cells were then used for transfection study with NFAT-Luc vectors, which was allowed for functional evaluation of the activation status of Ca^2+-dependent pathway.
Figure 2 Receptor selectivity of HK1, HK2, and HK1-V7F. The nuclear factor of activated T-cells (NFAT)-Luc reporter together with NK1Ra, NK1Rb, NK2R, NK3Rb, NK3Ra1, or NK3Ra2, were transiently transfected into HEK-293 cells, respectively. The cells were incubated with increasing levels of grass carp HK1, HK2, or HK1-V7F (0.1–1000 nM), respectively. The luciferase activities were normalized against renilla expression in the same sample to adjust for potential variations in transfection efficiency. Each point is determined quadruplicate and is given as a mean ± SEM. The groups denoted by different letters represent significant differences at p-value < 0.05 (ANOVA followed Dunnett’s test).

[1] = tested on: grass carp pituitary cells; assay: RT-qPCR of pituitary gene mRNA expression after peptide treatment of grass carp pituitary cells
Description: To further confirm the pituitary actions of HKs in grass carp, trypsin digestion method was used to prepare for grass carp primary cultured pituitary cells. […] After drug treatment, total RNA was extracted from adherent cells by Trizol, and then subjected to reverse transcription using HifairTM III 1st Strand cDNA Synthesis Kit (Yeasen, Shanghai, China). In the present study, β-actin was used as the internal reference gene, and then, the transcript levels of PRL, SLα, CART2, UTS1, and NMB1 were detected by using a ABI 7500 real-time PCR system (see Supplementary Table S2 for primer sequences and PCR condition). In addition, the plasmid DNA containing the gene coding sequence was serially diluted as a standard for data calibration.
In this study, RT-qPCR was used to detect mRNA expression for TAC4, NKRs, PRL, SLα, CART2, UTS1, SN2, and NMB1. In the ABI7500 software, the dynamic mRNA concentration detection range of the double standard curve is 10^5, and the correlation coefficient is >0.95. […] In the transfection experiment, the detected firefly luciferase activity was routinely normalized with the GFP activity expressed in the same well, expressed as the luciferin activity ratio Luc ratio. The data from four parallel experiments was presented as mean ± SEM in the figure. All the data were analyzed by ANOVA, and then subjected to Dunnett’s test in GraphPad Prism 7.0. The significant differences between groups were indicated by p < 0.05.
Figure 5 TAC4 gene products (HK1 and HK2) induced PRL (A) and SLα (B) mRNA expression in grass carp pituitary cells. Time course of grass carp HK1 (1 μM) and HK2 (1 μM) on PRL (A) and SLα (B) mRNA expression in grass carp pituitary cells. Dose-dependence of 24-h treatment with increasing levels of HK1 and HK2 (0.1–1000 nM) on PRL (A) and SLα (B) mRNA expression in grass carp pituitary cells. After drug treatment, the total RNA of the cells was extracted by the Trizol method, and the expression of various genes was detected by RT-PCR. Data presented were expressed as mean ± SEM, and the differences between groups were significant at p-value < 0.05 by labeling diverse letters.
Figure 6 TAC4 gene products (HK1 and HK2) induced CART2, NMB1, and UTS1 mRNA expression in grass carp pituitary cells. Time course of grass carp HK1 (1 μM) and HK2 (1 μM) on CART2 (A), NMB1 (B), and UTS1 (C) mRNA expression in grass carp pituitary cells. Dose-dependence of 24-h treatment with increasing levels of HK1 or HK2 (0.1–1000 nM) on CART2 (A), NMB1 (B), and UTS1 (C) mRNA expression in grass carp pituitary cells. After drug treatment, the total RNA of the cells was extracted by the Trizol method, and the expression of various genes were detected by RT-PCR. Data presented were expressed as mean ± SEM, and the differences between groups were significant at p-value < 0.05 by labeling diverse letters.
(§1) Figure 9 Phe to Val mutation in FXGLM motif in PRL, SLα, and UTS1 regulation by HK2 in grass carp pituitary cells. (A) Effects of HK1-V7F on PRL, SLα, and UTS1 mRNA expression in grass carp pituitary cells. In this experiment, grass carp pituitary cells were incubated for 24 h with increasing levels of HK1-V7F (0.1–1000 nM). (B) Suppressed effects of HK1 on HK2-induced PRL, SLα, and UTS1 mRNA expression in grass carp pituitary cells. Pituitary cells were challenged for 24 h with grass carp HK2 (0.1 µM) in the presence or absence of HK1 (1 µM) and HK1 (10 µM). In these experiment, Trizol method was used to extract total cell RNA, and RT-PCR was used to detect PRL, SLα, and UTS1 mRNA expression. Data presented are expressed as mean ± SEM, and the differences between groups were significant at p-value < 0.05 by labeling diverse letters.

[2] = tested on: grass carp pituitary cells; assay: Antagonist effect of HK1 on HK2-induced mRNA expression in grass carp pituitary cells; conditions: HK2 0.1 µM + HK1 1 µM and 10 µM, 24 h
Method: as §1
Furthermore, to verify whether HK1 could function as an endogenous antagonist of NKRs, we examined the antagonist effect of HK1 on HK2-induced pituitary hormone genes expression.

[3] = 1 µM, 3 h, 6 h, 24 h, 48 h, RT-qPCR, β-actin
[4] = 0.1–1000 nM, 24 h, RT-qPCR, β-actin
[5] = Figure 9B, 24 h static incubation, HK2 0.1 µM

TPGLQQVFGLM-NH2 [HK1, grass carp TAC4 mature peptide, …-NH2]
NK2R activation (in words) (NK2R): very weak activation | ED50, NFAT-Luc luciferase activity, NKR isoforms (six NKR isoforms; HEK-293T expressing each NKR): > 10 µM | activation of the six NKR isoforms (in words) (six NKR isoforms; NFAT-Luc luciferase, HEK293T, NK1Ra, NK1Rb, NK2R, NK3Ra1, NK3Ra2, NK3Rb): very weak activation; also recorded: relatively low efficient stimulant; also recorded: could barely activate any NKR isoforms | CART2 mRNA expression, time course [1, 3]: no effect | NMB1 mRNA expression, time course [1, 3]: no effect | PRL mRNA expression, time course [1, 3]: no effect | SLα mRNA expression, time course [1, 3]: no effect | UTS1 mRNA expression, time course [1, 3]: no effect | CART2 mRNA expression, dose-dependence [1, 4]: ineffective | NMB1 mRNA expression, dose-dependence [1, 4]: ineffective | PRL mRNA expression, dose-dependence [1, 4]: ineffective | SLα mRNA expression, dose-dependence [1, 4]: ineffective | UTS1 mRNA expression, dose-dependence [1, 4]: ineffective | PRL mRNA stimulation compared to HK2 [1, 5]: much weaker | SLα mRNA stimulation compared to HK2 [1, 5]: much weaker | UTS1 mRNA stimulation compared to HK2 [1, 5]: much weaker | pituitary genes' expression (summary) ([1]; grass carp pituitary cells, PRL, SLα, UTS1, NMB1, CART2): notably weaker; also recorded: ineffective for the six pituitary genes’ expression | suppression of HK2-induced PRL mRNA expression [2]: could not suppress; also recorded: could not block | suppression of HK2-induced SLα mRNA expression [2]: could not suppress; also recorded: could not block | suppression of HK2-induced UTS1 mRNA expression [2]: could not suppress; also recorded: could not block
